Measurements as given in paper PMC9114433 (Frontiers in Chemistry, 2022).
Several values for one entry are separate records, joined by “and”; a condition that tells them apart may be missing. Equal values may be shown once. Read-outs that look alike come from different tables or passages of the source.

What was measured:
hHAO1 [1] = molecular target: T1, hHAO1 (Homo sapiens, UniProt Q9UJM8); experiment: Amplex Red fluorescence hydrogen peroxide activity assay; type: biochemical; set-up: A hHAO1 construct, encoding residues Met1-Ser368, with an engineered N-terminal His6-tag; His6 (N); made in house; host or cells: E. coli BL21 (DE3); details: for Km: substrate titration, 30 nM hHAO1; for inhibition mode with respect to glycolate: glycolate 0–500 µM, compound 0–1 mM, best fitting model in GraphPad Prism; for Vmax, Best-fit, 1 mM: Vmax in the presence of 1 mM compound, reaction rate as µM; for LLEAT (Astex lipophilic ligand efficiency score): from hHAO1 IC50; for fold increase in potency: relative to parent fragment scaffold (fragment 1 for 7, 8; fragment 2 for 9–12); for 95% CI α / α (Best-fit): mixed model inhibition fit; for 95% CI α: 95% confidence interval; for α (Best-fit): ratio between αKi (enzyme-substrate complex) and Ki (free enzyme)
T1 sequence (Q9UJM8 1-368): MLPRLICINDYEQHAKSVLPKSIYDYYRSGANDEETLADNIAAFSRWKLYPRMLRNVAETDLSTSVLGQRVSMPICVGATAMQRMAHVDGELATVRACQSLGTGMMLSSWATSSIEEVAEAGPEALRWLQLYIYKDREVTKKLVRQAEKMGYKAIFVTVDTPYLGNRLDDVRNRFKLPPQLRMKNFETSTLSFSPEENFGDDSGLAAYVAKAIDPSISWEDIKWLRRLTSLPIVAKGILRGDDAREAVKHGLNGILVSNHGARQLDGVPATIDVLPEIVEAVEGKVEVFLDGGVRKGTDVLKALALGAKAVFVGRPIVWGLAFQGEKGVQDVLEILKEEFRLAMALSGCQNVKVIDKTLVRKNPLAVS
Protocol: hHAO1 activity in vitro was determined using the Amplex Red fluorescence hydrogen peroxide assay (Sigma Aldrich). […] The assay buffer contained 50 mM sodium phosphate, pH 7.4, 200 mM KCl, 2 mM MgCl2, and 0.01% TritonX. Determination of suitable assay parameters is described in the Supplementary Material. […] Following 10 min incubation at room temperature, 10 µl/well of Amplex Red reagent was added. […] All reactions were performed in technical triplicates for two different preparations of hHAO1. Reaction rate, defined as total H2O2 produced by the hHAO1 reaction, was determined from the H2O2 standard curve. […] This value is defined as the […] the inhibition constant for the free enzyme (Ki) and the inhibition constant for the enzyme-substrate complex (αKi) and can be related to the initial velocity (V0), substrate concentration ([S]), inhibitor concentration ([I]), and other kinetic parameters (Km, Vmax, Ki) as follows: V0 = Vmax [S]/(Km (1 + [I]/Ki) + [S](1 + [I]/(α∗Ki))). […]
6.2 Establishing parameters for Amplex Red activity assay
HAO1 activity was measured by coupling production of H2O2 by hHAO1 with the H2O2-dependent conversion of Amplex Red to its fluorescent product resorufin by […] peroxidase (Figure S7A).
To determine an incubation period resulting in measurements being made at initial rate conditions that also generated sufficient fluorescence signal, activity of 30 nM hHAO1 in the presence of 30 μM glycolate was measured every 1.5 minutes for a period of 60 minutes ([…]).
To confirm recombinant hHAO1 used in this work was active, the reaction rate of 30 nM hHAO1 was measured across a range of glycolate (Figure S7C) and 2-hydroxypalmitate (Figure S7D) concentrations.
(1 picture or pasted object on this page, not shown here)
Figure S8: Set-up of hHAO1 Amplex Red activity assay. (A) Schematic showing how hHAO1 activity is measured using the Amplex Red assay. (B) Plot of reaction rate (hydrogen peroxide […], µM) of 30 nM hHAO1 over time (minutes) in the presence of 30 µM glycolate. (C) Plot of relative fluorescence versus hydrogen peroxide concentration showing the standard curve fitted within the linear range of the Amplex Red reagent. (D) Michaelis-Menten plot of glycolate concentration versus reaction rate for 30 nM hHAO1. Inset: chemical structure of glycolate. (E) Michaelis-Menten plot of 2-hydroxypalmitate concentration versus reaction rate for 30 nM hHAO1. Inset: chemical structure of 2-hydroxypalmitate.

mGO = system: mGO; set-up: method as in ref Martin-Higueras, Luis-Lima, and Salido 2016; Moya-Garzón et al., 2018; details: purified mGO; ref Martin-Higueras, Luis-Lima, and Salido 2016; Moya-Garzón et al., 2018; cited from earlier work
[2] = molecular target: flavin dehydrogenase domain of yeast flavocytochrome b2; set-up: method as in Chen et al., 2012; details: ref Chen et al., 2012; cited from earlier work
[3] = system: rat LCHAO (equivalent to hHAO2); set-up: method as in Chen et al., 2012; details: ref Chen et al., 2012; cited from earlier work
HAO = system: HAO; set-up: method as in ref Chen et al., 2012; Martin-Higueras, Luis-Lima, and Salido 2016; details: published kinetics against mGO, rat LCHAO, yeast flavocytochrome b2, hHAO1; ref Chen et al., 2012; Martin-Higueras, Luis-Lima, and Salido 2016; cited from earlier work
hHAO1 [4] = molecular target: T1, hHAO1; details: read-out: Km (substrate), published value; ref Wang et al. 2016; cited from earlier work
[5] = 30 nM hHAO1, 30 µM glycolate, log(inhibitor) vs response fit, read-out: IC50 (Best-fit)
[6] = 30 µM glycolate, 95% confidence interval of fit, read-out: 95% CI IC50
[7] = 95% confidence interval of fit, read-out: 95% CI Ki
[8] = compound 0–1 mM vs glycolate 0–500 µM, read-out: Ki (Best-fit)
[9] = at 1 mM compound, glycolate titration

| inhibition mode with respect to glycolate (hHAO1 [1]) | IC50 (hHAO1 [1]; [5]) | IC50 (hHAO1 [1]; [6]) [µM] | Ki (hHAO1 [1]; [7]) [µM] | Vmax, Best-fit, 1 mM (hHAO1 [1]) [µM] | Ki (hHAO1 [1]; [8]) [µM] | LLEAT (Astex lipophilic ligand efficiency score) (hHAO1 [1]) [kcal/mol] | fold increase in potency (hHAO1 [1]) | SMILES | also measured |
| --- | --- | --- | --- | --- | --- | --- | --- | --- | --- |
| – | – | – | – | – | – | – | – | CCCCCCCCCCCCCCC(O)C(=O)O (centres unmarked) [2-hydroxypalmitate] | fold higher Km (hHAO1 [1]; relative to glycolate): 100 fold; Km (hHAO1 [1]; read-out: Km apparent (substrate)): 1200 ± 400 µM |
| – | 153 µM | 110 to 215 | 56.7 to 64.2 | 47.76 | 60.4 | 0.40 | 5 fold | O=C(NO)c1n[nH]c2ccccc12 [Compound 7] | – |
| competitive inhibition | 81 µM and 81.3 µM | 57.1 to 117 | 37.7 to 44.3 | 54.60 | 40.9 | 0.47 | 5 fold | NCCNC(=O)c1n[nH]c2ccccc12 [Compound 8] | – |
| – | 93 µM and 93.3 µM | 48.1 to 193 | 113 to 126 | 56.25 | 119 | 0.71 | more than 10 fold | Nc1c(C(=O)O)[nH]c(=O)[nH]c1=O [Compound 9] | fold lower potency (hHAO1 [1]; relative to compound 12): 3 fold |
| – | 60 µM and 59.8 µM | 39.5 to 92 | 157 to 177 | 56.47 | 167 | 0.77 | more than 10 fold | Cn1cc(N)c(=O)n(C)c1=O [Compound 10] | – |
| – | 40 µM and 39.8 µM | 22.8 to 71.1 | 219 to 248 | 55.85 | 233 | 0.88 | more than 10 fold | Cn1cc(N)c(=O)[nH]c1=O [Compound 11] | – |
| – | 27 µM and 27.4 µM | 19.9 to 38 | 141 to 156 | 54.05 | 148 | 0.89 | more than 10 fold | CC1=NC(=O)NC(=O)C1N (centres unmarked) [Compound 12] | – |
| mixed model inhibition | 44 µM and 43.8 µM | 27.4 to 71.4 | 59.1 to 82.9 | 27.28 | 69.7 | 0.30 | – | O=C(Nc1cccnc1)N1CCN(c2ccccc2O)CC1 [Compound 13] | fold increase in Km (hHAO1 [1]; [9]): up to 4 fold; 95% CI α (hHAO1 [1]): 7.84–27.32; α (Best-fit) (hHAO1 [1]): 13.27 |
| mixed model inhibition | 158 µM | 100 to 256 | 83.1 to 119 | 43.12 | 98.9 | 0.25 | – | Cc1cc(NC(=O)N2CCN(c3cccc(O)c3)CC2)no1 [Compound 14] | fold increase in Km (hHAO1 [1]; [9]): up to 4.9 fold; fold reduction in Vmax (hHAO1 [1]; [9]): up to 1.7 fold; 95% CI α (hHAO1 [1]): 9.41–59.28; α (Best-fit) (hHAO1 [1]): 18 and 18.4 |
| – | 420 µM | – | – | – | – | – | – | Cn1nc(C(N)=O)c2ccccc21 [Fragment 1] | – |
| – | – | – | – | – | – | – | – | O=C(C1CC1)N1CCN(c2ccc(F)cc2)CC1 [Fragment 3] | inhibition at 1000 µM (hHAO1 [1]; 1 mM fragment): 2%; inhibition at 10000 µM (hHAO1 [1]; 10 mM fragment): 19% |
| – | – | – | – | – | – | – | – | O=C(O)CO [glycolate] | Km (hHAO1 [4]): 74.5 µM; Km (hHAO1 [1]; read-out: Km (substrate)): 18.9 ± 0.8 µM |

| SMILES | inhibition mode with respect to glycolate (hHAO1 [1]) | IC50 (hHAO1 [1]; [5]) | IC50 (hHAO1 [1]; [6]) [µM] | Ki (hHAO1 [1]; [7]) [µM] | Vmax, Best-fit, 1 mM (hHAO1 [1]) [µM] | Ki (hHAO1 [1]; [8]) [µM] | LLEAT (Astex lipophilic ligand efficiency score) (hHAO1 [1]) [kcal/mol] | fold increase in potency (hHAO1 [1]) | also measured |
| --- | --- | --- | --- | --- | --- | --- | --- | --- | --- |
| O=C(O)c1nnsc1Sc1ccc(Cl)cc1 [CCPST, 4-carboxy-5-[(4-chlorophenyl)sulfanyl]-1,2,3-thiadiazole] | competitive inhibition mode | – | – | – | – | – | – | – | IC50 (mGO): 43 to 198 µM; IC50 [2]: 6 µM; IC50 [3]: 3.6 µM; inhibition mode (HAO): non-competitive inhibition mode |
